The values below come from patent publication US20220002279A1, “NOVEL IMIDAZOLE DERIVATIVE” (priority 2018, published 2022).

Converted amounts (≈) assume the structure as drawn.

Holding throughout (assay): Antimicrobial activity, MIC by broth microdilution
Format in all cases: cell-based
A general note: Dilution methods test growth across graded concentrations, often in twofold steps.

Assay [1] deals with Escherichia coli strain ATCC25922. The following applies: ATCC25922, 18 h, cation-adjusted Mueller-Hinton broth, about 5×10^5 CFU/mL, 35° C., about 18 hours, read-out: MIC Escherichia coli ATCC25922. The source says:
(§1) Test Example 4 Evaluation of the Antimicrobial Activity
(§2) For minimum inhibitory concentration (MIC) measurement, the following broth microdilution method was applied as adapted from the standard procedure recommended by the CLSI (Clinical and Laboratory Standards Institute).
(§3) The bacteria used were Pseudomonas aeruginosa strain ATCC27853, Escherichia coli strain ATCC25922, and Klebsiella pneumoniae strain ATCC13883. After culture overnight on a heart infusion agar medium, the cells of a test bacterium were scraped off, and a bacterial solution suspended to have a turbidity of level 0.5 on the McFarland scale was diluted and used as an inoculum solution. The inoculum solution was inoculated in a cation-adjusted Mueller-Hinton broth medium containing a test compound so that the final inoculation concentration was about 5×10^5 CFU/mL, and cultured at 35° C. for about 18 hours. A minimum drug concentration at which no cell growth was visible to the naked eye was designated as MIC. […] In the table, ND represents the case where suppression of the cell growth in a drug concentration-dependent manner was not observed (Not Determined), and NT represents that no test was conducted (Not Tested).

For assay [2], the system named is Pseudomonas aeruginosa strain ATCC27853. The following applies: ATCC27853, 18 h, cation-adjusted Mueller-Hinton broth, about 5×10^5 CFU/mL, 35° C., about 18 hours, read-out: MIC Pseudomonas aeruginosa ATCC27853.
Text: as §1, §2, §3

Assay [3] concerns Klebsiella pneumoniae strain ATCC13883. Conditions: ATCC13883, cation-adjusted Mueller-Hinton broth, about 5×10^5 CFU/mL, 35° C., about 18 hours, read-out: MIC Klebsiella pneumoniae ATCC13883.
Text: as §1, §2, §3

Consider `CC(O)CN1C[C@@H]2[C@@H](C#Cc3ccc(-c4cc([C@@H](CN)n5ccnc5[C@H](C)O)no4)cc3)[C@@H]2C1` (stereo partly drawn) [Compound 120, 1-{(1R,5S,6s)-6-[(4-{3-[(1R)-2-amino-1-{2-[(1S)-1-hydroxyethyl]-1H-imidazol-1-yl}ethyl]-1,2-oxazol-5-yl}phenyl)ethynyl]-3-azabicyclo[3.1.0]hexan-3-yl}propan-2-ol], for which the MIC in assay [1] is 1 µg/mL (≈ 2.17 µM); in assay [2], 2 µg/mL (≈ 4.33 µM); in assay [3], 2 µg/mL (≈ 4.33 µM).
In the case of `C[C@H](O)c1nccn1[C@H](CN)c1cc(-c2ccc(C#C[C@H]3C[C@H](NC=O)C3)cc2)on1` [Compound 106, N-{trans-3-[(4-{3-[(1R)-2-amino-1-(2-[(1S)-1-hydroxyethyl]-1H-imidazol-1-yl}ethyl]-1,2-oxazol-5-yl}phenyl)ethynyl]cyclobutyl}formamide], the minimal inhibitory concentration (MIC) amounted to 2 µg/mL (≈ 4.77 µM) in assay [1], 8 µg/mL (≈ 19.1 µM) in assay [2] and 4 µg/mL (≈ 9.54 µM) in assay [3].
The like results for `CC(=O)N[C@H]1C[C@H](C#Cc2ccc(-c3cc([C@@H](CN)n4ccnc4[C@H](C)O)no3)cc2)C1` [Compound 115, N-{trans-3-[(4-{3-[(1R)-2-amino-1-{2-[(1S)-1-hydroxyethyl]-1H-imidazol-1-yl}ethyl]-1,2-oxazol-5-yl}phenyl)ethynyl]cyclobutyl} acetamide] were, in that order, 4 µg/mL (≈ 9.23 µM), 16 µg/mL (≈ 36.9 µM) and 8 µg/mL (≈ 18.5 µM).
The like results for `C[C@H](O)c1nccn1[C@H](CN)c1cc(-c2ccc(C#C[C@H]3C[C@](O)(CO)C3)cc2)on1` [Compound 90, cis-3-[(4-{3-[(1R)-2-amino-1-{2-[(1S)-1-hydroxyethyl]-1H-imidazol-1-yl}ethyl]-1,2-oxazol-5-yl}phenyl)ethynyl]-1-(hydroxymethyl)cyclobutan-1-ol] were, in that order, 4 µg/mL (≈ 9.47 µM), 4 µg/mL (≈ 9.47 µM) and 8 µg/mL (≈ 18.9 µM).
Consider `C[C@H](O)c1nccn1Cc1cc(-c2ccc(C#C[C@H]3C[C@@H](O)C3)cc2)on1` [Compound 88, cis-3-({4-[3-((2-[(1S)-1-Hydroxyethyl]-1H-imidazol-1-yl}methyl)-1,2-oxazol-5-yl]phenyl}ethynyl)cyclobutan-1-ol], for which the minimal inhibitory concentration (MIC) in assay [1] is 0.12 µg/mL (≈ 0.33 µM); in assay [2] it was 16 µg/mL (≈ 44 µM); in assay [3] it was 0.25 µg/mL (≈ 0.688 µM).
As for `C[C@H](O)c1nccn1[C@H](CN)c1cc(-c2ccc(C#CC3CC(NC4CC4)C3)cc2)on1` (stereo partly drawn) [Compound 129, (1S)-1-(1-{(1R)-2-amino-1-[5-(4-{[3-(cyclopropylamino)cyclobutyl]ethynyl}phenyl)-1,2-oxazol-3-yl]ethyl}-1H-imidazol-2-yl)ethan-1-ol], the MIC is 1 µg/mL (≈ 2.32 µM) in assay [1], 8 µg/mL (≈ 18.5 µM) in assay [2] and 2 µg/mL (≈ 4.63 µM) in assay [3].
As for `CC(=O)N1C[C@@H]2[C@@H](C#Cc3ccc(-c4cc([C@@H](CN)n5ccnc5[C@H](C)O)no4)cc3)[C@@H]2C1` [Compound 91, 1-{(1R,5S,6s)-6-[(4-{3-[(1R)-2-Amino-1-{2-[(1S)-1-hydroxyethyl]-1H-imidazol-1-yl}ethyl]-1,2-oxazol-5-yl}phenyl)ethynyl]-3-azabicyclo[3.1.0]hexan-3-yl}ethan-1-one], the minimum inhibitory concentration (MIC) in assay [2] came out at 32 µg/mL (≈ 71.8 µM); in assay [3], 8 µg/mL (≈ 18 µM).
Consider `C[C@H](O)c1nccn1[C@H](CN)c1cc(-c2ccc(C#C[C@@H]3[C@H]4CN(C=O)C[C@@H]34)cc2)on1` [Compound 117, (1R,5S,6s)-6-[(4-{3-[(1R)-2-amino-1-{2-[(1S)-1-hydroxyethyl]-1H-imidazol-1-yl}ethyl]-1,2-oxazol-5-yl}phenyl)ethynyl]-3-azabicyclo[3.1.0]hexane-3-carbaldehyde], for which the minimal inhibitory concentration (MIC) in assay [1] came out at 1 µg/mL (≈ 2.32 µM); in assay [2] it was 8 µg/mL (≈ 18.5 µM); in assay [3] it was 2 µg/mL (≈ 4.64 µM).
In the case of `C[C@H](O)c1nccn1[C@H](CN)c1cc(-c2ccc(C#C[C@H]3C[C@@H](O)C3)cc2)on1` [Compound 125, cis-3-[(4-{3-[(1R)-2-amino-1-{2-[(1S)-1-hydroxyethyl]-1H-imidazol-1-yl}ethyl]-1,2-oxazol-5-yl}phenyl)ethynyl]cyclobutan-1-ol], the MIC was determined as 2 µg/mL (≈ 5.1 µM) in assay [1], 8 µg/mL (≈ 20.4 µM) in assay [2] and 2 µg/mL (≈ 5.1 µM) in assay [3].
Take `C[C@H](O)c1nccn1[C@H](CN)c1cc(-c2ccc(C#CC3CC3)cc2)on1` [Compound 60, (1S)-1-{1-[(1R)-2-amino-1-(5-[4-(cyclopropylethynyl)phenyl]-1,2-oxazol-3-yl}ethyl]-1H-imidazol-2-yl}ethan-1-ol]: the MIC came to 0.25 µg/mL (≈ 0.69 µM) in assay [1], 8 µg/mL (≈ 22.1 µM) in assay [2] and 0.25 µg/mL (≈ 0.69 µM) in assay [3].
In the case of `C[C@H](O)c1nccn1[C@H](CN)c1cc(-c2ccc(C#C[C@H]3C[C@@](O)(CO)C3)cc2)on1` [Compound 89, trans-3-[(4-(3-[(1R)-2-Amino-1-{2-[(1S)-1-hydroxyethyl]-1H-imidazol-1-yl}ethyl]-1,2-oxazol-5-yl}phenyl)ethynyl]-1-(hydroxymethyl)cyclobutan-1-ol], the MIC stood at 2 µg/mL (≈ 4.73 µM) in assay [1], 4 µg/mL (≈ 9.47 µM) in assay [2] and 8 µg/mL (≈ 18.9 µM) in assay [3].
In the case of `C[C@H](O)c1nccn1[C@H](CN)c1cc(-c2ccc(C#C[C@H]3CC3C(=O)O)cc2)on1` (stereo partly drawn) [Compound 126, trans-2-[(4-{3-[(1R)-2-amino-1-{2-[(1S)-1-hydroxyethyl]-1H-imidazol-1-yl}ethyl]-1,2-oxazol-5-yl}phenyl)ethynyl]cyclopropane-1-carboxylate], the minimal inhibitory concentration (MIC) in assay [1] came out at 16 µg/mL (≈ 39.4 µM); in assay [2] it was 16 µg/mL (≈ 39.4 µM); in assay [3], 64 µg/mL (≈ 157 µM).
Consider `C[C@H](O)c1nccn1[C@H](CN)c1cc(-c2ccc(C#C[C@H]3C[C@H](O)C3)cc2)no1` [Compound 100, trans-3-[(4-{5-[(1R)-2-amino-1-{2-[(1S)-1-hydroxyethyl]-1H-imidazol-1-yl}ethyl]-1,2-oxazol-3-yl}phenyl)ethynyl]cyclobutan-1-ol], for which the MIC in assay [3] was 4 µg/mL (≈ 10.2 µM).
On to `C[C@H](O)c1nccn1[C@H](CN)c1cc(-c2ccc(C#CC3C4COCC34)cc2)on1` (stereo partly drawn) [Compound 58, (1S)-1-{1-[(1R)-2-amino-1-(5-{4-[(3-oxabicyclo[3.1.0]hexan-6-yl)ethynyl]phenyl}-1,2-oxazol-3-yl)ethyl]-1H-imidazol-2-yl} ethan-1-ol], for which, in assay [2], the minimum inhibitory concentration (MIC) came to 8 µg/mL (≈ 19.8 µM).
Turning to `CNC[C@H](c1cc(-c2ccc(C#C[C@@H]3[C@H]4CN(CCO)C[C@@H]34)cc2)on1)n1ccnc1[C@H](C)O` [Compound 38, (1S)-1-{1-[(1R)-1-[5-(4-{[(1R,5S,6s)-3-(2-Hydroxyethyl)-3-azabicyclo[3.1.0]hexan-6-yl]ethynyl}phenyl)-1,2-oxazol-3-yl]-2-(methylamino)ethyl]-1H-imidazol-2-yl}ethan-1-ol], the MIC in assay [1] turned out to be 2 µg/mL (≈ 4.33 µM); in assay [2] it was 4 µg/mL (≈ 8.67 µM).
As to `COC(=O)N1C[C@@H]2[C@@H](C#Cc3ccc(-c4cc([C@@H](CN)n5ccnc5[C@H](C)O)no4)cc3)[C@@H]2C1` [Compound 118, methyl (1R,5S,6s)-6-[(4-{3-[(1R)-2-amino-1-{2-[(1S)-1-hydroxyethyl]-1H-imidazol-1-yl}ethyl]-1,2-oxazol-5-yl}phenyl)ethynyl]-3-azabicyclo[3.1.0]hexane-3-carboxylate], the MIC in assay [1] worked out at 0.25 µg/mL (≈ 0.542 µM); in assay [2], 4 µg/mL (≈ 8.67 µM); in assay [3] it was 0.5 µg/mL (≈ 1.08 µM).
Regarding `C[C@H](O)c1nccn1[C@H](CN)c1cc(-c2ccc(C#C[C@H]3C[C@H](N(C)C=O)C3)cc2)on1` [Compound 123, N-{trans-3-[(4-{3-[(1R)-2-amino-1-{2-[(1S)-1-hydroxyethyl]-1H-imidazol-1-yl}ethyl]-1,2-oxazol-5-yl}phenyl)ethynyl]cyclobutyl}-N-methylformamide], the figures for the MIC in assay [1], in assay [2] and in assay [3] were 4 µg/mL (≈ 9.23 µM), 32 µg/mL (≈ 73.8 µM) and 2 µg/mL (≈ 4.61 µM), respectively.
Consider `C[C@H](O)c1nccn1[C@H](CN)c1cc(-c2ccc(C#C[C@H]3C[C@H](NCCO)C3)cc2)on1` [Compound 134, (1S)-1-{1-[(1R)-2-amino-1-{5-[4-({trans-3-[(2-hydroxyethyl)amino]cyclobutyl}ethynyl)phenyl]-1,2-oxazol-3-yl}ethyl]-1H-imidazol-2-yl}ethan-1-ol], for which the minimum inhibitory concentration (MIC) was 4 µg/mL (≈ 9.18 µM) in assay [2] and 32 µg/mL (≈ 73.5 µM) in assay [3].
The like results for `C[C@H](O)c1nccn1[C@H](CN)c1cc(-c2ccc(C#CC3CC(C(=O)O)C3)cc2)on1` (stereo partly drawn) [Compound 130, 3-[(4-{3-{(1R)-2-amino-1-(2-[(1S)-1-hydroxyethyl]-1H-imidazol-1-yl}ethyl]-1,2-oxazol-5-yl}phenyl)ethynyl]cyclobutane-1-carboxylate] were, in that order, 8 µg/mL (≈ 19 µM) and 32 µg/mL (≈ 76.1 µM).
Consider `C[C@H](O)c1nccn1[C@H](CN)c1cc(-c2ccc(C#C[C@@H]3[C@H]4CN(C[C@@H](C)O)C[C@@H]34)cc2)on1` [Compound 137, (R)-1-((1R,5S,6R)-6-((4-(3-((R)-2-amino-1-(2-((S)-1-hydroxyethyl)-1H-imidazol-1-yl)ethyl)isoxazol-5-yl)phenyl)ethynyl)-3-azabicyclo[3.1.0]hexan-3-yl)propan-2-ol], for which the minimal inhibitory concentration (MIC) in assay [2] and in assay [3] was 4 µg/mL (≈ 8.67 µM) in each case.

The term MIC denotes the lowest concentration that inhibits growth of the organism.
